From US20150038438A1, “ANTIBACTERIAL COMPOUNDS AND METHODS FOR USE” (PTC THERAPEUTICS, INC., priority 2011, published 2015)
Converted amounts (≈) assume the structure as drawn. Where a name gives a salt, the structure may show the parent alone. Read-outs that look alike come from different tables or passages of the source.

Columns and labels:
Experiment in all cases: Antibacterial activity, microbroth dilution method (MIC)
[1] = tested on: Gram-positive Staphylococcus aureus (S. aureus) 29213; type: cell-based; conditions: Staphylococcus aureus, Gram-positive S. aureus 29213
Text: (§1) The antibacterial activity from a microbroth dilution method may be presented as the minimum inhibitory concentration (MIC in μg/mL). The MIC value is the lowest concentration of drug which prevents macroscopically visible growth under test conditions.
(§2) Antibacterial activity of test compounds against the super sensitive Gram-negative Escherichia coli (E. coli) BAS849 bacterium, the control Gram-negative E. coli 25922 strain and the Gram-positive Staphylococcus aureus (S. aureus) 29213 bacterium are shown in Table 1.

[2] = tested on: super sensitive Gram-negative Escherichia coli (E. coli) BAS849; type: cell-based; conditions: Escherichia coli, read-out: MIC, E. coli BAS849
Text: as §1, §2

[3] = tested on: control Gram-negative E. coli 25922 strain; type: cell-based, Escherichia coli; conditions: Escherichia coli
Text: as §1, §2

[4] = super sensitive Gram-negative E. coli BAS849, microbroth dilution

Row | Structure (SMILES) | MIC [1] | MIC [2, 4] | MIC [3] | MIC [2]
1 | Cn1ccc2cc3c(cc21)OCCc1c-3[nH]c(=O)c(C(=O)O)c1O [Cpd 87, 4-hydroxy-9-methyl-2-oxo-2,5,6,9-tetrahydro-1H-pyrido[2′,3′:4,5]oxepino[3,2-f]indole-3-carboxylic acid] | 12.5 to 150 µg/mL (≈ 38.3 to 460 µM) | < 1 µg/mL | 3.5 to 12.5 µg/mL (≈ 10.7 to 38.3 µM) | 
2 | Cl.Cn1c(CN2CCC2)cc2cc3c(cc21)CCCc1c-3[nH]c(=O)c(C(=O)O)c1O [Cpd 24, 10-(azetidin-1-ylmethyl)-4-hydroxy-9-methyl-2-oxo-1,2,5,6,7,9-hexahydropyrido[3′,2′:6,7]cyclohepta[1,2-f]indole-3-carboxylic acid hydrochloride] | 3.5 to 12.5 µg/mL | < 1 µg/mL | < 1 µg/mL | 
3 | Cl.O=C(O)c1c(O)c2c([nH]c1=O)-c1ccc(N3CCCNCC3)cc1CCC2 [Cpd 111, 9-(1,4-diazepan-1-yl)-4-hydroxy-2-oxo-2,5,6,7-tetrahydro-1H-benzo[6,7]cyclohepta[1,2-b]pyridine-3-carboxylic acid hydrochloride] | 12.5 to 150 µg/mL | 1 to 3.5 µg/mL | 12.5 to 150 µg/mL | 
4 | CC1COc2cc(N3C[C@@H]4[C@@H](N)[C@@H]4C3)ccc2-c2[nH]c(=O)c(C(=O)O)c(O)c21 (stereo partly drawn) [Cpd 86, 9-((cis,cis)-6-amino-3-azabicyclo[3.1.0]hexan-3-yl)-4-hydroxy-5-methyl-2-oxo-1,2,5,6-tetrahydrobenzo[2,3]oxepino[4,5-b]pyridine-3-carboxylic acid hydrochloride] | 12.5 to 150 µg/mL | < 1 µg/mL | 3.5 to 12.5 µg/mL | 
5 | N[C@@H]1[C@H]2CN(c3ccc4c(c3)OCCc3c-4[nH]c(=O)c(C(=O)O)c3O)C[C@@H]12 [Cpd 80, 9-((cis,cis)-6-amino-3-azabicyclo[3.1.0]hexan-3-yl)-4-hydroxy-2-oxo-1,2,5,6-tetrahydrobenzo[2,3]oxepino[4,5-b]pyridine-3-carboxylic acid hydrochloride] | 12.5 to 150 µg/mL | < 1 µg/mL | 1 to 3.5 µg/mL | 
6 | CC1Cc2cc(N(C)C)ccc2-c2[nH]c(=O)c(C(=O)O)c(O)c21 (stereo not drawn) [Cpd 108, 8-(dimethylamino)-4-hydroxy-5-methyl-2-oxo-1,2,5,6-tetrahydrobenzo[h]quinoline-3-carboxylic acid] | 3.5 to 12.5 µg/mL (≈ 11.1 to 39.8 µM) | < 1 µg/mL | 12.5 to 150 µg/mL (≈ 39.8 to 477 µM) | 
7 | CCCCCCCCNCc1cc2cc3c(cc2n1C)CCCc1c-3[nH]c(=O)c(C(=O)O)c1O.Cl [Cpd 140, 4-hydroxy-9-methyl-10-((octylamino)methyl)-2-oxo-1,2,5,6,7,9-hexahydropyrido[3′,2′:6,7]cyclohepta[1,2-f]indole-3-carboxylic acid hydrochloride] | 1 to 3.5 µg/mL | < 1 µg/mL | 12.5 to 150 µg/mL | 
8 | CNCc1cc2cc3c(cc2n1C)NCCCc1c-3[nH]c(=O)c(C(=O)O)c1O.Cl [Cpd 103, 4-hydroxy-10-methyl-11-((methylamino)methyl)-2-oxo-2,5,6,7,8,10-hexahydro-1H-pyrido[2′,3′:4,5]azocino[3,2-f]indole-3-carboxylic acid hydrochloride] | 12.5 to 150 µg/mL | 1 to 3.5 µg/mL | 12.5 to 150 µg/mL | 
9 | CCNCc1cc2c3c(ccc2n1C)-c1[nH]c(=O)c(C(=O)O)c(O)c1CCC3.Cl [Cpd 61, 2-((ethylamino)methyl)-7-hydroxy-1-methyl-9-oxo-1,4,5,6,9,10-hexahydropyrido[2′,3′:3,4]cyclohepta[1,2-e]indole-8-carboxylic acid hydrochloride] | 12.5 to 150 µg/mL | 3.5 to 12.5 µg/mL | 3.5 to 12.5 µg/mL | 
10 | O=C(O)c1cc2c([nH]c1=O)-c1ccc(N3CCCC3)cc1OCC2 [Cpd 81, 2-oxo-9-(pyrrolidin-1-yl)-1,2,5,6-tetrahydrobenzo[2,3]oxepino[4,5-b]pyridine-3-carboxylic acid] | 12.5 to 150 µg/mL (≈ 38.3 to 460 µM) | < 1 µg/mL | 12.5 to 150 µg/mL (≈ 38.3 to 460 µM) | 
11 | CNCc1cc2cc3c(cc2n1C)CCCc1c-3[nH]c(=O)c(C(=O)O)c1O.Cl [Cpd 22, 4-hydroxy-9-methyl-10-((methylamino)methyl)-2-oxo-1,2,5,6,7,9-hexahydropyrido[3′,2′:6,7]cyclohepta[1,2-f]indole-3-carboxylic acid hydrochloride] | 3.5 to 12.5 µg/mL | < 1 µg/mL | < 1 µg/mL | 
12 | COCCNCc1cc2cc3c(cc2n1C)OCCc1c-3[nH]c(=O)c(C(=O)O)c1O.Cl [Cpd 183, 4-hydroxy-10-(((2-methoxyethyl)amino)methyl)-9-methyl-2-oxo-2,5,6,9-tetrahydro-1H-pyrido[2′,3′:4,5]oxepino[3,2-f]indole-3-carboxylic acid hydrochloride] | 12.5 to 150 µg/mL | < 1 µg/mL | 1 to 3.5 µg/mL | 
13 | O=C(O)c1c(O)c2c([nH]c1=O)-c1ccc(N3CCCC3)cc1CCC2 [Cpd 7, 4-hydroxy-2-oxo-9-(pyrrolidin-1-yl)-2,5,6,7-tetrahydro-1H-benzo[6,7]cyclohepta[1,2-b]pyridine-3-carboxylic acid] | 3.5 to 12.5 µg/mL (≈ 10.3 to 36.7 µM) | < 1 µg/mL | 12.5 to 150 µg/mL (≈ 36.7 to 441 µM) | 
14 | CC(C)NCc1cc2cc3c(cc2n1C)OCCc1c-3[nH]c(=O)c(C(=O)O)c1O.Cl [Cpd 90, 4-hydroxy-10-((isopropylamino)methyl)-9-methyl-2-oxo-2,5,6,9-tetrahydro-1H-pyrido[2′,3′:4,5]oxepino[3,2-f]indole-3-carboxylic acid hydrochloride] | 12.5 to 150 µg/mL | < 1 µg/mL | < 1 µg/mL | 
15 | CC(CN(C)C)NCc1cc2cc3c(cc2n1C)CCCc1c-3[nH]c(=O)c(C(=O)O)c1O.Cl.Cl (stereo not drawn) [Cpd 160, 10-(((1-(dimethylamino)propan-2-yl)amino)methyl)-4-hydroxy-9-methyl-2-oxo-1,2,5,6,7,9-hexahydropyrido[3′,2′:6,7]cyclohepta[1,2-f]indole-3-carboxylic acid dihydrochloride] | 12.5 to 150 µg/mL | < 1 µg/mL | 3.5 to 12.5 µg/mL | 
16 | CN1CCC2CN(Cc3cc4cc5c(cc4n3C)CCCc3c-5[nH]c(=O)c(C(=O)O)c3O)CC21.Cl.Cl (stereo not drawn) [Cpd 162, 4-hydroxy-9-methyl-10-((1-methylhexahydropyrrolo[3,4-b]pyrrol-5(1H)-yl)methyl)-2-oxo-1,2,5,6,7,9-hexahydropyrido[3′,2′:6,7]cyclohepta[1,2-f]indole-3-carboxylic acid dihydrochloride] | 12.5 to 150 µg/mL | < 1 µg/mL | 3.5 to 12.5 µg/mL | 
17 | Cl.Cn1c(CNCC2CC2)cc2cc3c(cc21)CCCc1c-3[nH]c(=O)c(C(=O)O)c1O [Cpd 32, 10-(((cyclopropylmethyl)amino)methyl)-4-hydroxy-9-methyl-2-oxo-1,2,5,6,7,9-hexahydropyrido[3′,2′:6,7]cyclohepta[1,2-f]indole-3-carboxylic acid hydrochloride] | 1 to 3.5 µg/mL | < 1 µg/mL | 1 to 3.5 µg/mL | 
18 | CC(C)NCc1cc2cc3c(cc2n1C)NCCCc1c-3[nH]c(=O)c(C(=O)O)c1O.Cl [Cpd 105, 4-hydroxy-11-((isopropylamino)methyl)-10-methyl-2-oxo-2,5,6,7,8,10-hexahydro-1H-pyrido[2′,3′:4,5]azocino[3,2-f]indole-3-carboxylic acid hydrochloride] | 12.5 to 150 µg/mL | 1 to 3.5 µg/mL | 3.5 to 12.5 µg/mL | 
19 | CC1Oc2cc(Cl)ccc2-c2c1cc(C(=O)O)c(=O)n2Cc1ccccc1 (stereo not drawn) [Cpd 72, 1-benzyl-8-chloro-5-methyl-2-oxo-2,5-dihydro-1H-chromeno[4,3-b]pyridine-3-carboxylic acid] | 3.5 to 12.5 µg/mL (≈ 9.17 to 32.7 µM) | 3.5 to 12.5 µg/mL (≈ 9.17 to 32.7 µM) | 12.5 to 150 µg/mL (≈ 32.7 to 393 µM) | 
20 | CC1Oc2cc(N3CCCC3)ccc2-c2[nH]c(=O)c(C(=O)O)cc21 (stereo not drawn) [Cpd 74, 5-methyl-2-oxo-8-(pyrrolidin-1-yl)-2,5-dihydro-1H-chromeno[4,3-b]pyridine-3-carboxylic acid] | 12.5 to 150 µg/mL (≈ 38.3 to 460 µM) | 1 to 3.5 µg/mL (≈ 3.06 to 10.7 µM) | 12.5 to 150 µg/mL (≈ 38.3 to 460 µM) | 
21 | CC1CCc2c([nH]c(=O)c(C(=O)O)c2O)-c2cc3cc(CNC4(C)CC4)n(C)c3cc21.Cl (stereo not drawn) [Cpd 66, 4-hydroxy-7,9-dimethyl-10-(((1-methylcyclopropyl)amino)methyl)-2-oxo-1,2,5,6,7,9-hexahydropyrido[3′,2′:6,7]cyclohepta[1,2-f]indole-3-carboxylic acid hydrochloride] | 3.5 to 12.5 µg/mL | 1 to 3.5 µg/mL | 12.5 to 150 µg/mL | 
22 | O=C(O)c1c(O)c2c([nH]c1=O)-c1ccc(N[C@@H]3CC[C@H]4CNC[C@H]43)cc1OCC2 [Cpd 166, 4-hydroxy-9-(((cis)-octahydrocyclopenta[c]pyrrol-4-yl)-(cis)-amino)-2-oxo-1,2,5,6-tetrahydrobenzo[2,3]oxepino[4,5-b]pyridine-3-carboxylic acid hydrochloride] | 12.5 to 150 µg/mL | 12.5 to 150 µg/mL | 12.5 to 150 µg/mL | 
23 | CN1CCN(Cc2cc3cc4c(cc3n2C)OCCc2c-4[nH]c(=O)c(C(=O)O)c2O)CC1.Cl.Cl [Cpd 176, 4-hydroxy-9-methyl-10-((4-methylpiperazin-1-yl)methyl)-2-oxo-2,5,6,9-tetrahydro-1H-pyrido[2′,3′:4,5]oxepino[3,2-f]indole-3-carboxylic acid dihydrochloride] | 12.5 to 150 µg/mL | < 1 µg/mL | 3.5 to 12.5 µg/mL | 
24 | CN(C)CCNc1ccc2c(c1)CCCc1c-2[nH]c(=O)c(C(=O)O)c1O.Cl [Cpd 113, 9-((2-(dimethylamino)ethyl)amino)-4-hydroxy-2-oxo-2,5,6,7-tetrahydro-1H-benzo[6,7]cyclohepta[1,2-b]pyridine-3-carboxylic acid hydrochloride] | 12.5 to 150 µg/mL | 3.5 to 12.5 µg/mL | 12.5 to 150 µg/mL | 
25 | CCNCCc1cc2cc3c(cc2n1C)C=CCc1c-3[nH]c(=O)c(C(=O)O)c1O.O=C(O)C(F)(F)F [Cpd 164, 10-(2-(ethylamino)ethyl)-4-hydroxy-9-methyl-2-oxo-1,2,5,9-tetrahydropyrido[3′,2′:6,7]cyclohepta[1,2-f]indole-3-carboxylic acid trifluoroacetate] | 12.5 to 150 µg/mL |  | 1 to 3.5 µg/mL | < 1 µg/mL
